{"source": "ChEMBL document CHEMBL1201862", "about": "“PubChem BioAssay data set” (2004)", "key": {"[1]": {"assay": "Luminescence Cell-Based Dose Response HTS to Identify Inhibitors of 5'UTR Stem-Loop Driven Prion Protein mRNA Translation in H4 Neuroglioblastoma Cells. [Related pubchem assays: 1827 (Project Summary), 1813 (Primary HTS)]", "assay_type": "functional"}, "[2]": {"assay": "non-specific 3'UTR reporter inhibition in Clone20-Shn3RL – cell-based, Renilla luciferase, cherry-picked, counter-screen for Shn3 inhibitor project, dose response (AID 624133)", "assay_type": "functional"}, "INS1": {"test_system": "INS1", "assay": "INS-1E survival protection against cytokine death – cell-based, luminescence, retest, dose response (AID 449756);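 also: cell death triggered by IL-1 beta plus TNF-alpha plus IFN-gamma mixture; protective hits raise ATP signal compared with cytokine alone wells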", "assay_type": "functional", "conditions": "Rattus norvegicus"}, "[3]": {"assay": "luciferase reporter signal suppression in cells – H4 neuroglioma cells, luminescence, dose response (AID 1990)", "assay_type": "functional, cell-based"}, "[4]": {"assay": "alpha-synuclein stem-loop luciferase translation blockers – H4 neuroglioma cells, luminescence, confirmation (AID 1988)", "assay_type": "functional, cell-based"}, "[5]": {"assay": "NIH3T3 cell viability loss – ATP luminescence, mouse fibroblasts, counter-screen, dose response (AID 2010);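 also: cells exposed to compound for about 90 hours before reading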", "assay_type": "functional, cell-based"}, "[6]": {"assay": "Trypanosoma cruzi growth suppression in host cells – NIH3T3 host cells, beta-gal luminescence, confirmation (AID 2044);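 also: luminescent beta-galactosidase reporter signal from transgenic T. cruzi replicating inside host cells; inhibitors lower the luminescence signal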", "assay_type": "functional, cell-based"}, "[7]": {"assay": "reduction of Shn3 3'UTR-driven luciferase in osteoblasts – cell-based, Clone20 osteoblasts, firefly luciferase, cherry-picked, dose response (AID 624132)", "assay_type": "functional"}, "[8]": {"assay": "loss of viability in HepG2 cells – cell-based, CellTiter-Glo, cherry-picked, cytotoxicity control for Shn3 inhibitor project, dose response (AID 624134)", "assay_type": "functional"}, "[9]": {"target": "T1, Calpain-2 catalytic subunit (Sus scrofa, UniProt P43367)", "T1 sequence (P43367 whole entry)": "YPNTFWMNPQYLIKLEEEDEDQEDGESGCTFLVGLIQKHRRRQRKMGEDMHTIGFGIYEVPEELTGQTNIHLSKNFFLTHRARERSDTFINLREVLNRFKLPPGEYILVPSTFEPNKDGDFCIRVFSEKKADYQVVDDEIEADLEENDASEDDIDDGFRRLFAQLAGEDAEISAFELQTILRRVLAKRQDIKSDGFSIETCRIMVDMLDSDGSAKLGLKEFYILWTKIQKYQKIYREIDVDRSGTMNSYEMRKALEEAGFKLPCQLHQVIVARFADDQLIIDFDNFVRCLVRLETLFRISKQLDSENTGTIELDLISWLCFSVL", "assay": "m-calpain protease blockers, concentration series – biochemical, fluorogenic peptide substrate, dose response (AID 1420)", "assay_type": "functional"}, "Protein RecA": {"target": "T2, Protein RecA (Mycobacterium tuberculosis, UniProt P9WHJ3)", "T2 sequence (P9WHJ3 whole entry)": "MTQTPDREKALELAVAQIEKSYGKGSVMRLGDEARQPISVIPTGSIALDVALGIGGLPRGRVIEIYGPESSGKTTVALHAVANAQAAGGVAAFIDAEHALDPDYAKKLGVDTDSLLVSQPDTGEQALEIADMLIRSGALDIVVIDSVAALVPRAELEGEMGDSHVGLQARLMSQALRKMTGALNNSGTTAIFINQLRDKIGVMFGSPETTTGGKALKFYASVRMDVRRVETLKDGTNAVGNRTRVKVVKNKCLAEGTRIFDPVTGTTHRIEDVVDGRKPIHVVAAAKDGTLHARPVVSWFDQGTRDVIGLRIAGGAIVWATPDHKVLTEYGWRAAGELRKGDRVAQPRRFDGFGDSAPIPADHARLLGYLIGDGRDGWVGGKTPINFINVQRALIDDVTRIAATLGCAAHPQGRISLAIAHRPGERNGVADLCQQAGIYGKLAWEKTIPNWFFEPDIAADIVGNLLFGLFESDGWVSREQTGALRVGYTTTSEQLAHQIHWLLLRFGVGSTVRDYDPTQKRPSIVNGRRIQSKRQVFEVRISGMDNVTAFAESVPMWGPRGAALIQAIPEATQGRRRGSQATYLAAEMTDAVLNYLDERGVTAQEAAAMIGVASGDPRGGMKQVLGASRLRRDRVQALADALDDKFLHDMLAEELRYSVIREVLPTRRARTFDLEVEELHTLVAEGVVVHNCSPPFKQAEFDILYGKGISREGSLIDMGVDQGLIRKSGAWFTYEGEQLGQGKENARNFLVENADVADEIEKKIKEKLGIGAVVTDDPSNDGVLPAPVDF", "assay": "Fluorescence Cell-Free Homogeneous Dose Retest to Identify Inhibitors of RecA-Intein Splicing Activity. [Related pubchem assays (depositor defined):AID2097, AID2223, AID489010, AID492950]", "assay_type": "functional"}, "[10]": {"target": "T3, Replicative DNA helicase DnaB (Mycobacterium tuberculosis, UniProt P9WMR3)", "T3 sequence (P9WMR3 whole entry)": "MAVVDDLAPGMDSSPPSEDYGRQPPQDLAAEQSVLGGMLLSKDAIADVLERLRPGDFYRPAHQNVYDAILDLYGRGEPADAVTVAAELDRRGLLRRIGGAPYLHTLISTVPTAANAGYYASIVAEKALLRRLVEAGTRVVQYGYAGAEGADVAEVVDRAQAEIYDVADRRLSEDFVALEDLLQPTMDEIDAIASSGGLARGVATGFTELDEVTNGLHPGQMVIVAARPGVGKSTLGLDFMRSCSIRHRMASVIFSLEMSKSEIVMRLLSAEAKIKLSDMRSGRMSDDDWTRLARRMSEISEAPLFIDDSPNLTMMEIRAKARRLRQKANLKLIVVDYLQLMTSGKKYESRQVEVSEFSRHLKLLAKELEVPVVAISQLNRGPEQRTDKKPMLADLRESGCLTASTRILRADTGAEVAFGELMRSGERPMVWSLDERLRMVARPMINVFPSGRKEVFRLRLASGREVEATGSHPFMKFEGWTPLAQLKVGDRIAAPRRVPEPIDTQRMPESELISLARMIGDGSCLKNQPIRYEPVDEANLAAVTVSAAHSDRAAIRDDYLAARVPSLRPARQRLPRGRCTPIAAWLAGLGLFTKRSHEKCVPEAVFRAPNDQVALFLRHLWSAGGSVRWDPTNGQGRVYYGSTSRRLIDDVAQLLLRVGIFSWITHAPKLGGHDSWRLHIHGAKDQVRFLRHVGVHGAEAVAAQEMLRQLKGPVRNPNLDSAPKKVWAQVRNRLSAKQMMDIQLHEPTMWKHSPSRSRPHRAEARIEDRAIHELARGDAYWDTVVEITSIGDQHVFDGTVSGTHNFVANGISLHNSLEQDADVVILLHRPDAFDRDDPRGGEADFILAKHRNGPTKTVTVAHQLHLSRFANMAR", "assay": "DnaB intein splicing inhibitors, dose response, biochemical, cell-free fluorescence (AID 449749)", "assay_type": "functional"}, "[11]": {"target": "Glyceraldehyde-3-phosphate dehydrogenase (Homo sapiens, UniProt P04406)", "sequence (P04406 whole entry)": "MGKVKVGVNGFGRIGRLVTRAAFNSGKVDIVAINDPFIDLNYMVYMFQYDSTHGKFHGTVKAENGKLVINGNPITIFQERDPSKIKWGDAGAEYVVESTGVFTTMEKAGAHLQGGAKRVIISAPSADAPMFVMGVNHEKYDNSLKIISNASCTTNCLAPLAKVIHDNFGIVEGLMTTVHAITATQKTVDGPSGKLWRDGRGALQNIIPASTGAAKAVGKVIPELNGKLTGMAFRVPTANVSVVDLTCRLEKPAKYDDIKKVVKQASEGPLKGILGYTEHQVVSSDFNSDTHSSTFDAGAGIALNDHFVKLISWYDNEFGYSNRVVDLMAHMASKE"}, "[12]": {"assay": "A cytotoxicity screen of small molecule inhibitors of the PhoP region in Salmonella typhi identified in the primary screen. [Related pubchem assays: 1850, 1864, 1985 ]", "assay_type": "functional"}, "[13]": {"assay": "P. falciparum Dd2 growth inhibitors, dose response, SYBR Green, cherry-picked samples (AID 1159567)", "assay_type": "functional, cell-based"}, "[14]": {"assay": "growth inhibition of PfATP4-mutant resistant parasites – NITD609-resistant line, SYBR Green, dry powder, dose response (AID 1159571);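 also: parasites synchronized at ring stage by sorbitol before testing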", "assay_type": "functional, cell-based"}, "[15]": {"assay": "Dd2 malaria parasite growth inhibition potency – SYBR Green, dry powder samples, dose response (AID 1159566)", "assay_type": "functional, cell-based"}, "[16]": {"assay": "growth inhibition of yeast DHODH-expressing 3D7 parasites – SYBR Green, dry powder samples, dose response (AID 1159570);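 also: parasite growth measured after 72 hours of compound exposure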", "assay_type": "functional, cell-based"}, "[17]": {"target": "Induced myeloid leukemia cell differentiation protein Mcl-1 (Homo sapiens, UniProt Q07820)", "sequence (Q07820 whole entry)": "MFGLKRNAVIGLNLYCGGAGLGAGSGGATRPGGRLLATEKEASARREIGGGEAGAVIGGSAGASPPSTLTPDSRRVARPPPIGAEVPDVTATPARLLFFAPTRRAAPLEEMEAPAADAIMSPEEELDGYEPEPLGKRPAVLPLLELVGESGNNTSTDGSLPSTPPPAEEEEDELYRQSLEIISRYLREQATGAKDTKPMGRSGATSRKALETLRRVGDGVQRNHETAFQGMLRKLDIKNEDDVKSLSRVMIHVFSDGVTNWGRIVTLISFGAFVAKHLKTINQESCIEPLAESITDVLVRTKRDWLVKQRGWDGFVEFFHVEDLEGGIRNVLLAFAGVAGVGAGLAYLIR", "assay_type": "functional"}, "[18]": {"target": "T4, Short transient receptor potential channel 4 (Mus musculus, UniProt Q9QUQ5)", "T4 sequence (Q9QUQ5 whole entry)": "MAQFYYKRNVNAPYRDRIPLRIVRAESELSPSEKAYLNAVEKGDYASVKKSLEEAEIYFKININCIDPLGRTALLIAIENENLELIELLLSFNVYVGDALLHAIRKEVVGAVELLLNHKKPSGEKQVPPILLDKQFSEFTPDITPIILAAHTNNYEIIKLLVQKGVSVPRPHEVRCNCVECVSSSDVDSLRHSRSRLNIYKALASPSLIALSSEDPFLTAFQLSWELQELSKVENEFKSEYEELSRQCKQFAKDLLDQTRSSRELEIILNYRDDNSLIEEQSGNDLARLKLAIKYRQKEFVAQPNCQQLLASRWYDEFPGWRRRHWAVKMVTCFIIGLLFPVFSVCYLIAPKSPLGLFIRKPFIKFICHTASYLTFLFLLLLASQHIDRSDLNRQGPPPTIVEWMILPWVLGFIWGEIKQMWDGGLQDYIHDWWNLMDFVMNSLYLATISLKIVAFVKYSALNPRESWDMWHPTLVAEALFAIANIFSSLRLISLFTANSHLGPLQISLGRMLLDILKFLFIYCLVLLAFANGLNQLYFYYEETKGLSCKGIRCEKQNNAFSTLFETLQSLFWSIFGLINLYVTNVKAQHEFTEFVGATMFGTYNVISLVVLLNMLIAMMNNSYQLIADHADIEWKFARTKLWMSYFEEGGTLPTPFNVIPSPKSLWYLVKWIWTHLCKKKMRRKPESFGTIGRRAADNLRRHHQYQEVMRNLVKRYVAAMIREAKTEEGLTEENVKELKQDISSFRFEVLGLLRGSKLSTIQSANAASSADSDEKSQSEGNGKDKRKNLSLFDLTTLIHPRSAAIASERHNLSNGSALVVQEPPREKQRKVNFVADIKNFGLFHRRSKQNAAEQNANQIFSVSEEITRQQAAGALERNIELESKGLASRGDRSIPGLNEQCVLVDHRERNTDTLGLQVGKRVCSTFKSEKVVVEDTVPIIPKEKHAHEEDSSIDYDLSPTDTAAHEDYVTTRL", "assay": "calcium entry via TRPC4 opening agents – cell-based, HEK293 TRPC4/mu-opioid, Fluo-4 calcium, dose response (AID 434937)", "assay_type": "functional"}}, "note": "The source made the active and inactive calls.", "data": [{"smiles": "COc1ccc(CNCCc2c(C)[nH]c3ccc(OC(F)(F)F)cc23)c(OC)c1", "values": [{"measurement": "EC50", "setting": "[1]", "value": "> 120 µM (not active)"}, {"measurement": "AC50", "setting": "[2]", "value": "8.45 µM (active)"}, {"measurement": "AC50", "setting": "INS1", "value": "4.68 µM (active)"}, {"measurement": "EC50", "setting": "[3]", "value": "17.7 µM (active)"}, {"measurement": "EC50", "setting": "[4]", "value": "> 120 µM (not active)"}, {"measurement": "EC50", "setting": "[5]", "value": "> 60 µM (not active)"}, {"measurement": "EC50", "setting": "[6]", "value": "0.703 µM (active)"}, {"measurement": "AC50", "setting": "[7]", "value": "0.963 µM (active)"}, {"measurement": "AC50", "setting": "[8]", "value": "9.13 µM (active)"}]}, {"smiles": "FC(F)(F)C1CC(c2cccs2)Nc2ncnn21", "note": "(centres undefined)", "values": [{"measurement": "IC50", "setting": "[9]", "value": "0.904 µM (not active)"}]}, {"smiles": "CC1CCc2c(sc3c2C2=NS(=O)(=O)CCN2C=N3)C1", "note": "(centres undefined)", "values": [{"measurement": "IC50", "setting": "[9]", "value": "9.53 µM (not active)"}]}, {"smiles": "CCCc1n[nH]c2c1C(c1ccccc1OC)C(C#N)=C(N)O2", "note": "(centres undefined)", "values": [{"measurement": "EC50", "setting": "Protein RecA", "value": "2.07 µM (active)"}, {"measurement": "AC50", "setting": "[10]", "value": "15.9 µM (active)"}]}, {"smiles": "O=C1C(Cl)=C(N2CCN(CCO)CC2)C(=O)N1c1ccc(Cl)nc1", "values": [{"measurement": "IC50", "setting": "[11]", "value": "> 50 µM (inconclusive)"}]}, {"smiles": "Nc1nc2ccccc2cc1-c1cccs1", "values": [{"measurement": "EC50", "setting": "[12]", "value": "> 50 µM (active)"}]}, {"smiles": "CCOC(=O)C1(CC2CCCCO2)CCN(C(=O)Nc2ccc(C)c(C)c2)CC1", "note": "(centres undefined)", "values": [{"measurement": "IC50", "setting": "[9]", "value": "> 50 µM (not active)"}]}, {"smiles": "COc1ccccc1CNc1nc(NCc2ccc(C(C)C)cc2)c2sccc2n1", "values": [{"measurement": "AC50", "setting": "[2]", "value": "10.5 µM (active)"}, {"measurement": "AC50", "setting": "[7]", "value": "6.81 µM (active)"}, {"measurement": "AC50", "setting": "[8]", "value": "39.4 µM (active)"}]}, {"smiles": "COc1ccc(C#Cc2cnc3c(c2)C(=O)N([C@H](C)CO)C[C@H](C)[C@H](CN(C)S(=O)(=O)c2cccc(F)c2)O3)cc1OC", "values": [{"measurement": "AC50", "setting": "[13]", "value": "1.38 µM (active)"}, {"measurement": "AC50", "setting": "[14]", "value": "1.17 µM (active)"}, {"measurement": "AC50", "setting": "[15]", "value": "0.774 µM (active)"}, {"measurement": "AC50", "setting": "[16]", "value": "1.8 µM (active)"}]}, {"smiles": "CCCCN(CC)CC/N=c1/c(N2CCN(C(=O)OCC)CC2)c(O)c1=O", "values": [{"measurement": "IC50", "setting": "[17]", "value": "0.433 µM (active)"}, {"measurement": "EC50", "setting": "[18]", "value": "1.68 µM (active)"}]}, {"smiles": "CC(C)(C)[S@+]([O-])N1Cc2cc(C(=O)N[C@@H]3CCN(Cc4ccccc4)C3)nc(-c3cccc(-c4cccnc4)c3)c2[C@@H]1CCO", "values": [{"measurement": "AC50", "setting": "[13]", "value": "1.93 µM (active)"}, {"measurement": "AC50", "setting": "[14]", "value": "1.98 µM (active)"}, {"measurement": "AC50", "setting": "[15]", "value": "1.99 µM (active)"}, {"measurement": "AC50", "setting": "[16]", "value": "2.62 µM (active)"}]}]}
